Source: patent US20180280400A1, “TRANSDERMAL ADMINISTRATION SYSTEM FOR USE IN THE TREATMENT OF CHRONIC BRONCHOPULMONARY DISEASES” (ABC FARMACEUTICI S.P.A., priority 2013, published 2018)

How the values were obtained:
[1] = tested on: human keratinocyte cell lines (HACAT); assay: MTT cytotoxicity test, HACAT; assay type: cell-based
[2] = tested on: human fibroblast cell lines (HFF); assay: MTT cytotoxicity test, HFF; assay type: cell-based
[3] = tested on: human endothelial cells from the umbilical vein (HUVEC); assay: MTT cytotoxicity test, HUVEC; assay type: cell-based
[4] = In vitro-ex vivo skin permeation across human epidermis, Franz diffusion cells; assay type: in vitro ADME; conditions: 4% w/v, up to 24 hours
Procedure: The Franz diffusion cells comprise two compartments, one containing the active ingredient (donor vehicle) and the other containing a receiving solution, separated by a slice of human epidermis. The vertical cells used in the actual experimental unit have a wider column than that in the original Franz type of diffusion cell, and the decanter shape was dispensed with. These have a diffusion area of 0.636 cm^2 and a receiving compartment of approximately 3.0 ml. The receiving volume in each cell is individually calibrated and equipped with a magnetic stirrer. Human epidermis was selected as the membrane for skin permeation studies. The skin used in the studies was obtained from the abdominal skin of a donor who underwent cosmetic surgery. The skin samples were prepared following an internal standard procedure. The full thickness of the skin was sealed in evacuated plastic bags and frozen at -20° C. within 6 hours of removal. Before the experiments the skin was thawed out at ambient temperature and excess fat was completely removed. […] The integrity of the skin was evaluated by measuring the impedance of each sample (Agilent LCR Meter 4263B). Subsequently the epidermis was mounted in the Franz diffusion cell, the receiving compartment of which was filled with saline solution (NaCl 0.9% w/v) filtered using a 0.22 μm filter (VWR, nylon membrane). […]

in vitro = conditions: dog, MDCK, pH 7.4
Procedure: (§1) MDCK cells were kept in Minimal Essential Medium Eagle (EMEM) containing 10% FBS, 2 nM of fresh L-glutamine and 2 nM of penicillin-streptomycin. The culture inserts were inseminated with 664000 cells per cm^2 (0.33 cm^2 per insert). The monolayers of MDCK were cultured for three days before use. The monolayers were washed with Hanks Balanced Salt Solution (HBSS+10 nM Hepes pH 7.4) transport medium; the electrical resistance of each monolayer was measured at 37° C. using a Millicell ERS-2 (Millipore). Background resistance values were subtracted from the resistance values of treated wells of monolayer. The resulting value was multiplied by the area of the membrane (0.33 cm^2) to calculate the transepithelial electrical resistance values (TEER (Ω cm^2)) for each monolayer. TEER values indicate the degree of confluence of the monolayer and the development of tight junctions. If the resistance was <200 Ω cm^2 the test was continued. MDCK monolayers having TEER values>200 Ω cm^2 were not used. The donor solutions in the transport test comprised 100 μM of test compound in the transport medium containing 100 nM of fluorescein isocyanate-dextran. The transport tests were performed using 0.250 ml of apical donor solution and 1 ml of basolateral acceptor solution (transport medium, pH 7.4). […] The monolayers were incubated with donor and acceptor solutions for 120 minutes at 37° C. The basolateral compartments were sampled after 120 minutes and analysed using LC-MS/MS, together with an aliquot of the donor solutions in the transport test (100 μM of the test compound) corresponding to (sample at time zero).
(§2) in which dQ/dt is the permeation velocity, CA is the initial concentration in the donor compartment and A is the surface area of the filter. […]
(§3) The integrated peak area for the LC-MS/MS chromatograms was used as the instrument response (INRE) for relative quantification of the test material.
(§4) The permeability of the test material was then evaluated by comparing the INRE for five replicates after two hours incubation, on the basis of the INRE response to the t0 samples.

[5] = with chemical potentiating agents, including oleic acid; cited from earlier work

Procedure for MDCK monolayers: as §1, §2, §3, §4

Structure (SMILES) | cytotoxicity (MTT test) [1] | cytotoxicity (MTT test) [2] | cytotoxicity (MTT test) [3] | skin permeability values (permeate over time) ([4]; aqueous solvent, FIG. 1) | skin permeability values (permeate over time) ([4]; triacetin solvent, FIG. 2) | permeability value (in words) (MDCK monolayers) | Papp A→B at 120 min, 100 µM (in vitro) | administered flow through human skin [5]
Cn1c(=O)c2c(ncn2CC2OCCO2)n(C)c1=O [Doxofylline, 2-(7′-theophyllinemethyl)-1,3-dioxolane] | no cytotoxicity | no cytotoxicity | no cytotoxicity | substantially higher than those for theophylline | substantially higher than those for theophylline | high permeability value | 22.7 ×10⁻⁶ cm/s | 
COCCc1ccc(OCC(O)CNC(C)C)cc1 (stereo not drawn) [Metoprolol, metoprolol] |  |  |  |  |  |  | 6.52 ×10⁻⁶ cm/s | 
Cn1c(=O)c2[nH]cnc2n(C)c1=O [Theophylline, theophylline] |  |  |  |  |  |  |  | insufficient
